Reference: paper PMC8776995 (Frontiers in Chemistry, 2022)
Where “and” joins values, the source holds several entries; their conditions need not be identical. Equal values may be shown once. Read-outs that look alike come from different tables or passages of the source.

Key:
A549 cells = assay: CCK-8 antiproliferation assay, A549; settings: for Inhibitory efficacy: A549 cells; for IC50: A549, 48 h, read-out: IC50 (μM) A549, CCK-8, 48 h, average ± SD of three independent experiments
PC-9 cells = assay: CCK-8 antiproliferation assay, PC-9; settings: for IC50: PC-9, 48 h, read-out: IC50 (μM) PC-9; for Inhibitory efficacy: single repeats (Repeat 1-3), given as fraction
H1975 cells = assay: CCK-8 antiproliferation assay, H1975; settings: for Inhibitory efficacy: H1975 cells; for IC50: NCI-H1975, 48 h, read-out: IC50 (μM) H1975, CCK-8, 48 h, average ± SD of three independent experiments
H460 cells = assay: CCK-8 antiproliferation assay, H460; settings: for IC50: NCI-H460, 48 h, read-out: IC50 (μM) H460, CCK-8, 48 h, average ± SD of three independent experiments
Procedure: The compounds were dissolved in DMSO to make a 20 μM stock solution and diluted to the concentration of working solutions with complete growth medium before administration.
Cells were seeded in 96-well plates: 3,000–5,000 cells/well in 100 ul. One day after seeding, the test compounds at concentration between 1.0 and 16.0 μ M or 0.1% DMSO (as control) were added to cells in triplicate. 48 h later, CCK-8 was added and incubated the plate for 1–4 h in the incubator. The absorbance at 450 nm were measured using a microplate reader (Bio-Tek).

wild-type EGFR = wild-type EGFR (Homo sapiens, UniProt P00533); assay: EGFR kinase assay (ELISA); settings: for IC50: IC50 (μM) EGFR, ELISA, 3 μmol/L ATP; for A450: raw ELISA absorbance
Sequence of wild-type EGFR (P00533 25-1210): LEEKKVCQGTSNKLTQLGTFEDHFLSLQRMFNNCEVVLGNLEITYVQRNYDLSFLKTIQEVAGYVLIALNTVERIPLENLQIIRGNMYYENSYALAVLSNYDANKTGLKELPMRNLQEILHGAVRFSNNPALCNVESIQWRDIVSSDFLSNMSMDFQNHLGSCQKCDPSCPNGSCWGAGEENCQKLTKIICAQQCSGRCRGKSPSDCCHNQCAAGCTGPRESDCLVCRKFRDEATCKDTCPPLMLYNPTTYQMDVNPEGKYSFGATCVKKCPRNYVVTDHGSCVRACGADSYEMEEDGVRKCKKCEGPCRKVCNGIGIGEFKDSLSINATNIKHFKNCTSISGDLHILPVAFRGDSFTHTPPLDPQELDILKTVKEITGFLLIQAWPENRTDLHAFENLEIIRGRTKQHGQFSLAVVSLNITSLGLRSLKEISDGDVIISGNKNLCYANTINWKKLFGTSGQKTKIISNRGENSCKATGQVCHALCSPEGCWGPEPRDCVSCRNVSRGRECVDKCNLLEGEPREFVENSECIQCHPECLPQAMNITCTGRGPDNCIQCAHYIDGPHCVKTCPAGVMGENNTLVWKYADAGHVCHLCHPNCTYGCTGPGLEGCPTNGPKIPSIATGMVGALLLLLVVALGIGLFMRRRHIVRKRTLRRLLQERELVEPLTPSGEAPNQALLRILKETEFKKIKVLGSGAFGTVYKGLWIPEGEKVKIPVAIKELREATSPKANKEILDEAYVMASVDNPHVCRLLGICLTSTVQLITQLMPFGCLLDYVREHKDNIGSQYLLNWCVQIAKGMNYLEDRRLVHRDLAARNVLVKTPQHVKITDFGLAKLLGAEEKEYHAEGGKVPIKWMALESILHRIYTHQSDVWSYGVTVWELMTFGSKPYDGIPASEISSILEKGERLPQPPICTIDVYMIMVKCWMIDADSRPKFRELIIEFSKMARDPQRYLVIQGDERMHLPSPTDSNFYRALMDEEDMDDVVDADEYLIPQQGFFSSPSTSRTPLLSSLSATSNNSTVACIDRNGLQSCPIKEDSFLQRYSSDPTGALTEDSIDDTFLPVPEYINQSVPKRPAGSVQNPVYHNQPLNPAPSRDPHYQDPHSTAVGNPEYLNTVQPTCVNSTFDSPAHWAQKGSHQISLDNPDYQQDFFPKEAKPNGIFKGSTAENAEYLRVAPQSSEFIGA

[1] = 2uM, given as fraction, Repeat 1-3
[2] = 4uM, given as fraction, Repeat 1-3
[3] = 8uM, given as fraction, Repeat 1-3
[4] = 16uM, given as fraction, Repeat 1-3
[5] = Homo sapiens, A549, read-out: Inhibitory efficacy, A549 cells, 8uM, given as fraction, Repeat 1-3
[6] = Homo sapiens, A549, read-out: Inhibitory efficacy, A549 cells, 16uM, given as fraction, Repeat 1-3
[7] = Homo sapiens, NCI-H1975, read-out: Inhibitory efficacy, H1975 cells, 16uM, given as fraction, Repeat 1-3

With `COCCOc1cc2ncnc(Nc3cccc(-c4cn(CCc5ccccc5)nn4)c3)c2cc1OCCOC` [e20, [6,7-Bis-(2-methoxy-ethoxy)-quinazolin-4-yl]-[3-(1-phenethyl-1H-[1,2,3]triazol-4-yl)-phenyl]-amine] the Inhibitory efficacy (A549 cells; [1]) was 0.2224 and 0.1702, the Inhibitory efficacy (A549 cells; [2]) was 0.2939 and 0.3309 and the Inhibitory efficacy (A549 cells; [3]) was 0.2956 and 0.3275. For the same compound, the Inhibitory efficacy (A549 cells; [4]) was 0.2156 and 0.1736, the IC50 (A549 cells; Homo sapiens) was > 100 µM and the inhibition at 2 µM (A549 cells; Homo sapiens, A549, read-out: Inhibitory efficacy, A549 cells, 2uM, given as fraction, Repeat 1-3) was 18.8%. It also gave an inhibition at 4 µM (A549 cells; Homo sapiens, A549, read-out: Inhibitory efficacy, A549 cells, 4uM, given as fraction, Repeat 1-3) of 29.1%, an inhibition at 8 µM (A549 cells; [5]) of 22.2% and an inhibition at 16 µM (A549 cells; [6]) of 20.2%. For the same compound, the IC50 (PC-9 cells; Homo sapiens) was > 100 µM, the Inhibitory efficacy (H1975 cells; [4]) was 0.06216 and 0.05712 and the IC50 (H1975 cells; Homo sapiens) was > 100 µM. The inhibition at 16 µM (H1975 cells; [7]) was 8.81%, the melting point was 109 to 112 °C and the Inhibitory efficacy (H460 cells; H460 cells, 1uM, given as fraction, Repeat 1-3) was 0.1948 and 0.1895. For the same compound, the Inhibitory efficacy (H460 cells; H460 cells, 4uM, given as fraction, Repeat 1-3) was 0.1258 and 0.07143, the IC50 (H460 cells; Homo sapiens) was > 100 µM and the inhibition at 1 µM (H460 cells; Homo sapiens, NCI-H460, read-out: Inhibitory efficacy, H460 cells, 1uM, given as fraction, Repeat 1-3) was 17.3%. For the same compound, the inhibition at 4 µM (H460 cells; Homo sapiens, NCI-H460, read-out: Inhibitory efficacy, H460 cells, 4uM, given as fraction, Repeat 1-3) was 9.76%, the IC50 (wild-type EGFR) was 0.28 µM and the inhibition at 100 fM (wild-type EGFR; concentration 0.0001 nM (reference for normalisation), one value per replicate column) was 0%. The inhibition at 30 pM (wild-type EGFR; concentration 0.03 nM, one value per replicate column) was 3.3%, the Inhibition (wild-type EGFR; concentration 0.03 nM, one value per replicate column, 3e-05 µM) was 3.99 and the inhibition at 0.0003 µM (wild-type EGFR; concentration 0.3 nM, one value per replicate column) was 21.7%. It also gave an Inhibition (wild-type EGFR; concentration 0.3 nM, one value per replicate column, 0.0003 µM) of 27.0358, an inhibition at 0.003 µM (wild-type EGFR; concentration 3 nM, one value per replicate column) of 38.5% and an Inhibition (wild-type EGFR; concentration 3 nM, one value per replicate column, 0.003 µM) of 33.7948. The inhibition at 0.03 µM (wild-type EGFR; concentration 30 nM, one value per replicate column) was 40.5%, the Inhibition (wild-type EGFR; concentration 30 nM, one value per replicate column, 0.03 µM) was 35.1792 and the inhibition at 0.3 µM (wild-type EGFR; concentration 300 nM, one value per replicate column) was 42.1%. The Inhibition (wild-type EGFR; concentration 300 nM, one value per replicate column, 0.3 µM) was 40.798, the inhibition at 3 µM (wild-type EGFR; concentration 3000 nM, one value per replicate column) was 55.8% and the Inhibition (wild-type EGFR; concentration 3000 nM, one value per replicate column, 3 µM) was 51.9544. For the same compound, the inhibition at 30 µM (wild-type EGFR; concentration 30000 nM, one value per replicate column) was 88.6%, the Inhibition (wild-type EGFR; concentration 30000 nM, one value per replicate column, 30 µM) was 85.4235 and the A450 (wild-type EGFR; concentration 0.0001 nM) was 1.605 and 1.533. The A450 (wild-type EGFR; concentration 0.03 nM) was 1.562 and 1.484, the A450 (wild-type EGFR; concentration 0.3 nM) was 1.323 and 1.201 and the A450 (wild-type EGFR; concentration 3 nM) was 1.104 and 1.118. For the same compound, the A450 (wild-type EGFR; concentration 30 nM) was 1.078 and 1.101, the A450 (wild-type EGFR; concentration 300 nM) was 1.057 and 1.032 and the A450 (wild-type EGFR; concentration 3000 nM) was 0.879 and 0.895. For the same compound, the A450 (wild-type EGFR; concentration 30000 nM) was 0.452 and 0.484.
With `COCCOc1cc2ncnc(Nc3cccc(-c4cn(-c5ccccc5Cl)nn4)c3)c2cc1OCCOC` [e8, [6,7-Bis-(2-methoxy-ethoxy)-quinazolin-4-yl]-{3-[1-(2-chloro-phenyl)-1H-[1,2,3]triazol-4-yl]-phenyl}-amine] the Inhibitory efficacy (A549 cells; [3]) was 0.2217 and 0.2238, the Inhibitory efficacy (A549 cells; [4]) was 0.3678 and 0.3836 and the IC50 (A549 cells; Homo sapiens) was 23 ± 0.75 µM. The inhibition at 8 µM (A549 cells; [5]) was 18.4%, the inhibition at 16 µM (A549 cells; [6]) was 42.9% and the IC50 (PC-9 cells; Homo sapiens) was > 100 µM. It also gave an inhibition at 4 µM (PC-9 cells; Homo sapiens, PC-9, read-out: Inhibitory efficacy, PC-9, 4uM, single repeats (Repeat 1-3), given as fraction) of 17.4%, an inhibition at 8 µM (PC-9 cells; Homo sapiens, PC-9, read-out: Inhibitory efficacy, PC-9, 8uM, single repeats (Repeat 1-3), given as fraction) of 26.3% and an inhibition at 16 µM (PC-9 cells; Homo sapiens, PC-9, read-out: Inhibitory efficacy, PC-9, 16uM, single repeats (Repeat 1-3), given as fraction) of 13.4%. The Inhibitory efficacy (PC-9 cells; PC-9, 4uM, 4 µM) was 0.2895 and 0.3075, the Inhibitory efficacy (PC-9 cells; PC-9, 8uM, 8 µM) was 0.1686 and 0.3213 and the Inhibitory efficacy (PC-9 cells; PC-9, 16uM, 16 µM) was 0.1771 and 0.2089. The Inhibitory efficacy (H1975 cells; 1uM, given as fraction, Repeat 1-3) was 0.1767 and 0.1612, the Inhibitory efficacy (H1975 cells; [1]) was 0.1999 and 0.1391 and the Inhibitory efficacy (H1975 cells; [2]) was 0.3925 and 0.388. For the same compound, the Inhibitory efficacy (H1975 cells; [3]) was 0.5795 and 0.574, the Inhibitory efficacy (H1975 cells; [4]) was 0.6879 and 0.6171 and the IC50 (H1975 cells; Homo sapiens) was 7.19 ± 0.68 µM. It also gave an inhibition at 1 µM (H1975 cells; Homo sapiens, NCI-H1975, read-out: Inhibitory efficacy, H1975 cells, 1uM, given as fraction, Repeat 1-3) of 16.1%, an inhibition at 2 µM (H1975 cells; Homo sapiens, NCI-H1975, read-out: Inhibitory efficacy, H1975 cells, 2uM, given as fraction, Repeat 1-3) of 19.8% and an inhibition at 4 µM (H1975 cells; Homo sapiens, NCI-H1975, read-out: Inhibitory efficacy, H1975 cells, 4uM, given as fraction, Repeat 1-3) of 39.9%. The inhibition at 8 µM (H1975 cells; Homo sapiens, NCI-H1975, read-out: Inhibitory efficacy, H1975 cells, 8uM, given as fraction, Repeat 1-3) was 51.1%, the inhibition at 16 µM (H1975 cells; [7]) was 64.1% and the melting point was 131 to 134 °C. For the same compound, the Inhibitory efficacy (H460 cells; H460, 1uM, single repeats (Repeat 1-3), given as fraction, 1 µM) was 0.1177 and 0.197, the Inhibitory efficacy (H460 cells; H460, 2uM, single repeats (Repeat 1-3), given as fraction, 2 µM) was 0.3433 and 0.3114 and the Inhibitory efficacy (H460 cells; H460, 4uM, single repeats (Repeat 1-3), given as fraction, 4 µM) was 0.6025 and 0.5869. The Inhibitory efficacy (H460 cells; H460, 8uM, single repeats (Repeat 1-3), given as fraction, 8 µM) was 0.6548 and 0.6973, the Inhibitory efficacy (H460 cells; H460, 16uM, single repeats (Repeat 1-3), given as fraction, 16 µM) was 0.6875 and 0.7414 and the IC50 (H460 cells; Homo sapiens) was 4.18 ± 0.49 µM. It also gave an inhibition at 1 µM (H460 cells; Homo sapiens, NCI-H460, read-out: Inhibitory efficacy, H460, 1uM, single repeats (Repeat 1-3), given as fraction) of 14.2%, an inhibition at 2 µM (H460 cells; Homo sapiens, NCI-H460, read-out: Inhibitory efficacy, H460, 2uM, single repeats (Repeat 1-3), given as fraction) of 35.8% and an inhibition at 4 µM (H460 cells; Homo sapiens, NCI-H460, read-out: Inhibitory efficacy, H460, 4uM, single repeats (Repeat 1-3), given as fraction) of 48.3%. It also gave an inhibition at 8 µM (H460 cells; Homo sapiens, NCI-H460, read-out: Inhibitory efficacy, H460, 8uM, single repeats (Repeat 1-3), given as fraction) of 66.5%, an inhibition at 16 µM (H460 cells; Homo sapiens, NCI-H460, read-out: Inhibitory efficacy, H460, 16uM, single repeats (Repeat 1-3), given as fraction) of 66.8% and an inhibition at 0.0003 µM (wild-type EGFR; 0.3 nM, duplicate wells, calculated from A450) of 14.4%. It also gave an Inhibition (wild-type EGFR; 0.3 nM, duplicate wells, calculated from A450, 0.0003 µM) of 7.895, an inhibition at 0.003 µM (wild-type EGFR; 3 nM, duplicate wells, calculated from A450) of 15.7% and an Inhibition (wild-type EGFR; 3 nM, duplicate wells, calculated from A450, 0.003 µM) of 18.5965. It also gave an inhibition at 0.03 µM (wild-type EGFR; 30 nM, duplicate wells, calculated from A450) of 17.9%, an Inhibition (wild-type EGFR; 30 nM, duplicate wells, calculated from A450, 0.03 µM) of 21.4035 and an inhibition at 0.3 µM (wild-type EGFR; 300 nM, duplicate wells, calculated from A450) of 28.8%. It also gave an Inhibition (wild-type EGFR; 300 nM, duplicate wells, calculated from A450, 0.3 µM) of 23.1579, an inhibition at 3 µM (wild-type EGFR; 3000 nM, duplicate wells, calculated from A450) of 43% and an Inhibition (wild-type EGFR; 3000 nM, duplicate wells, calculated from A450, 3 µM) of 40.5263. The inhibition at 30 µM (wild-type EGFR; 30000 nM, duplicate wells, calculated from A450) was 91%, the Inhibition (wild-type EGFR; 30000 nM, duplicate wells, calculated from A450, 30 µM) was 89.8246 and the IC50 (wild-type EGFR) was 1.99 µM.
